These results are taken from PMC10743653, “Combined In Silico and In Vitro Analyses to Assess the Anticancer Potential of Thiazolidinedione–Thiosemicarbazone Hybrid Molecules” (International Journal of Molecular Sciences, 2023).

One assay relates to CCD 841 CoTr cells. The assay can be described thus: MTT assay, normal colon epithelial cells. The assay is classed as cell-based. The settings on record: Homo sapiens, CCD 841 CoTr (noncancerous), 24 h treatment, mean ± SD. As for the experimental part:
The effects of TZD–TSCs 2–5 on the cellular viability of a panel of cell lines were investigated through an 3-(4,5-dimethylthiazol-2-yl)-2,5-diphenyl-2H-tetrazolium bromide (MTT) assay, following a 24 h treatment with the compounds. The panel consisted of three solid tumor cells: T98G (glioblastoma multiforme), HepG2 (hepatocellular carcinoma, epithelial), and HT29 (colon adenocarcinoma, epithelial), as well as noncancerous cells CCD 841 CoTr (normal colon, epithelial).
Primary single dose screenings of TZD–TSCs 2–5 were performed at a concentration of 200 μg/mL, and those that elicited a greater than 80% inhibition of cell proliferation were analyzed at several concentrations, to find their half-maximal inhibitory concentration (IC50). The IC50 values, reported as the mean ± SD in Table 2, indicate the concentration of the tested compound that inhibits the growth/viability of the cancer cell population by 50%. In this specific case of an MTT assay, which measures the activity of mitochondrial dehydrogenases (as an indicator of cell viability), the IC50 values stand for the concentration that inhibits the metabolic activity of cells by 50%.
Human colon adenocarcinoma cells, HT29 (ATCC no. HTB-38), derived from a grade I tumor, were cultured in roswell park memorial institute Medium (RPMI) 1640 medium, supplemented with 10% fetal calf serum (FCS) (GibcoTM, Paisley, UK) and antibiotics (100 U/mL penicillin and 100 μg/mL streptomycin) (Sigma, St. Louis, MO), at 37 °C in a humidified atmosphere with 5% CO2. Human normal colon epithelial cells, CCD 841 CoTr (ATCC no. CRL-1807), were cultured in RPMI 1640 + dulbecco’s modified eagle medium (DMEM) (1:1) medium (Sigma, St. Louis, MO), supplemented with 10% FCS and antibiotics, at 34 °C in a 5% CO2/95% air atmosphere. Human glioblastoma T98G cells were cultured in Dulbecco’s Modified Eagle’s Medium (DMEM) (Sigma Aldrich, St. Louis, MO, USA), supplemented with 10% fetal bovine serum (FBS), penicillin (100 U/mL), and streptomycin (100 μg/mL). Human hepatocellular carcinoma cells, HepG2, were maintained in Eagle’s Minimum Essential Medium, supplemented with 10% FBS, penicillin (100 U/mL), and streptomycin (100 μg/mL).
After 24 h of incubation of the cells with the tested compounds in 100 μL of culture medium, MTT solution (5 mg/mL, 25 μL/well) was added and incubated for an additional 3 h. The purple crystals of formazan which formed in the medium were solubilized overnight in 10% sodium dodecyl sulphate (SDS) in a 0.01 M HCl mixture. The product was quantified spectrophotometrically by measuring its absorbance at 570 nm using an Emax Microplate Reader (Molecular Devices Corporation, Menlo Park, CA, USA).
For orientation: Tetrazolium dyes change colour on reduction, which living cells bring about.

Another assay deals with HepG2 cells. Put plainly: Cell migration (wound healing) assay, HepG2. The assay is classed as cell-based, human. The following applies: HepG2, IC50 doses (2: 10.39 μM; 3: 2.97 μM), 24 h. As for the experimental part:
(§1) The possible anti-migratory effect of 2 and 3 was examined against HepG2 and T98G cells, which most effectively responded to TZD–TSC treatment. The ability of cells to cover the scratched area was monitored after 24 h of incubation with compounds 2 and 3. […] Thus, we can conclude that the anticancer potential of the investigated compounds is enriched by their anti-metastatic effect.
Cell migration ability was evaluated according to a wound healing assay. On the day of the experiment, HepG2 and T98G cells were collected from monolayers using trypsin/EDTA and seeded on 6-well plates at a density of 1 × 10^5 cells mL^−1. After 24 h, when the confluence of cells reached about 80%, a vertical linear scratch was created in the monolayer with a sterile pipette tip. The cells were washed three times with a phosphate-buffered saline (PBS) to remove all cellular debris. […] The open wound area was measured with the NIH ImageJ software version 1.53t (Bethesda, Rockville, MD, USA). The percentage of wound closure was calculated using the following formula [81]: Wound closure (%)=open wound area at 0 h −open wound area at 24 h or 48 h/open wound area at 0 h×100%

A further assay deals with T98G cells. The assay can be described thus: Cell migration (wound healing) assay, T98G. The assay is classed as cell-based, human. The following applies: 24 h; for Migration of cancer cells (wound healing): IC50 doses (2: 26.82 μM; 3: 28.34 μM); for Reduction in the migratory potential: ½ IC50 concentrations (2: 13.41 μM; 3: 14.17 μM). As for the experimental part:
as §1
Cell migration ability was evaluated according to a wound healing assay. On the day of the experiment, HepG2 and T98G cells were collected from monolayers using trypsin/EDTA and seeded on 6-well plates at a density of 1 × 10^5 cells mL^−1. After 24 h, when the confluence of cells reached about 80%, a vertical linear scratch was created in the monolayer with a sterile pipette tip. The cells were washed three times with a phosphate-buffered saline (PBS) to remove all cellular debris. Subsequently, the cells were cultured in a serum-free medium, containing compounds 2 or 3 in the concentrations equal to their IC50 or ½ IC50 values, as examined for HepG2 and T98G cancer cell lines (data provided in Table 2).Images of the scratch were taken after 0 h and 24 h using an Olympus CKX53 microscope coupled with a XM10 digital camera (Olympus). The experiments were performed at least in duplicate. The scratch area at the beginning of the experiment (0 h) was considered to be 100%. The open wound area was measured with the NIH ImageJ software version 1.53t (Bethesda, Rockville, MD, USA). The percentage of wound closure was calculated using the following formula [81]: Wound closure (%)=open wound area at 0 h −open wound area at 24 h or 48 h/open wound area at 0 h×100%

The nature of assay [1]: DPPH free radical scavenging test. The text has this: Antioxidant activity is a complex procedure, usually happening through several multiple or predominant chemical mechanisms (i.e., hydrogen atom transfer (HAT), single electron transfer (SET), and the ability to chelate transition metals), and it is influenced by many factors, which cannot be fully described with one single method. Therefore, it is important to perform more than one type of measurement to take into account the various mechanisms of antioxidant action. In this study, to assess the antioxidant activity of TZD–TSCs 2–5, two complementary tests were used: a DPPH (2,2-diphenyl-1-picrylhydrazyl) free radical-scavenging ability assay, that detects the HAT and SET mechanisms, and a FRAP (ferric reducing antioxidant power) assay, that prefers the […] mechanism. The antioxidant powers of 2–5 were compared to standard antioxidants, such as the water-soluble synthetic analogue of vitamin E (Trolox) and ascorbic acid (vitamin C).
The free radical scavenging activity of […] was measured by the DPPH assay. Briefly, 100 μl of DPPH solution (0.2 mg/mL in ethanol) was added to 100 μL of the tested compound concentrations (25, 75, 150, and 200 μg/mL, respectively). Trolox, at increasing concentrations (1–50 μg/mL), was used as a standard. After 20 min of incubation at room temperature, the absorbances of the solutions were measured at 515 nm. The lower the absorbance, the higher the free radical scavenging activity of the compound. The activity of each compound was determined by comparing its absorbance with that of the standard.
The ability of the compounds to scavenge the DPPH radical was calculated by the following formula:DPPH scavenging effect (%) = [(Xcontrol − Xcompound/Xcontrol) × 100], where Xcontrol is the absorbance of the control and Xcompound is the absorbance in the presence of TZD-TSCs preparations.
In general terms: DPPH is a stable violet radical that fades when it is reduced.

For the next assay, the system named is bacteria. More on the design: method as in PMID 29701728. The following applies: in vitro antibacterial potency; cited from earlier work.

As for `O=C(C=C1SC(=O)NC1=O)Oc1ccccc1C=NNC(=S)Nc1ccccc1Cl` [TZD–TSC 2], the half-inhibitory concentration (IC50) in the assay on CCD 841 CoTr cells was found to be 44.6 ± 2.91 µM. The “Migration of cancer cells (wound healing)” value in the assay with HepG2 cells and with T98G cells was “almost completely suppressed” throughout. Moreover, the “Reduction in the migratory potential” value with T98G cells was > 90%. Also, the “DPPH reduction value corresponding to concentration of Trolox” value came out at 2.942 µg/mL in assay [1] (compound at 25 μg/mL), 6.670 µg/mL in assay [1] (compound at 75 μg/mL), 11.412 µg/mL in assay [1] (compound at 150 μg/mL) and 15.068 µg/mL in assay [1] (compound at 200 μg/mL). The “Minimal inhibitory concentrations (MICs)” value with bacteria is 8.48 to 16.94 µM.

As for `O=C(C=C1SC(=O)NC1=O)Oc1ccccc1C=NNC(=S)Nc1cccc(Cl)c1` [TZD–TSC 3], in the assay on CCD 841 CoTr cells, the IC50 stood at 100 ± 4.82 µM. In addition, the “Migration of cancer cells (wound healing)” value in the assay on HepG2 cells and in the assay with T98G cells was “almost completely suppressed” in each case. Further, in the assay on T98G cells, the “Reduction in the migratory potential” value is given as > 90%. In addition, the “DPPH reduction value corresponding to concentration of Trolox” value is 2.616 µg/mL in assay [1] (compound at 25 μg/mL), 9.168 µg/mL in assay [1] (compound at 75 μg/mL), 17.167 µg/mL in assay [1] (compound at 150 μg/mL) and 21.439 µg/mL in assay [1] (compound at 200 μg/mL). Moreover, in the assay with bacteria, the “Minimal inhibitory concentrations (MICs)” value was 8.48 to 16.94 µM.

In general, IC50 refers to the concentration at which inhibition is half-maximal.
